# Data as given in PubChem BioAssay (NCI).
# “And” between values parts separate entries of the source, which are not always exact repeats. Equal values may be shown once.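 Compound exposure: 48 hours, 5 concentrations, 96-well plates. Here, GI50 denotes the concentration required for 50% inhibition of growth. TGI: total growth inhibition.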
# Tests used:
# Experiment in all cases: NCI-60 cell line screen, 48 h
# HCT-15 colon = test system: HCT-15 colon
# SNB-78 CNS = test system: SNB-78 CNS
# TK-10 renal = test system: TK-10 renal
# SK-MEL-2 melanoma = test system: SK-MEL-2 melanoma
# OVCAR-5 ovarian = test system: OVCAR-5 ovarian
# DLD-1 colon = test system: DLD-1 colon
# SF-539 CNS = test system: SF-539 CNS
# UACC-257 melanoma = test system: UACC-257 melanoma
# KM12 colon = test system: KM12 colon
# HS 578T breast = test system: HS 578T breast
SMILES,TGI (HCT-15 colon),TGI (SNB-78 CNS) [µM],TGI (TK-10 renal) [µM],TGI (SK-MEL-2 melanoma),TGI (OVCAR-5 ovarian),TGI (DLD-1 colon) [µM],TGI (SF-539 CNS),TGI (UACC-257 melanoma),TGI (KM12 colon),TGI (HS 578T breast) [µM],GI50 (HCT-15 colon) [µM],GI50 (HS 578T breast) [µM],GI50 (TK-10 renal) [µM],GI50 (SK-MEL-2 melanoma) [µM],GI50 (OVCAR-5 ovarian) [µM],GI50 (SF-539 CNS) [µM],GI50 (UACC-257 melanoma) [µM],GI50 (KM12 colon) [µM],GI50 (SNB-78 CNS) [µM]
CC1=NN(C(=O)c2ccc(Cl)cc2)C(=O)/C1=C/c1ccccc1O,> 100 µM,> 100,> 100,> 100 µM,> 100 µM,> 100,> 100 µM,> 100 µM,> 100 µM,,,,,,,,,,
CN1CCc2c1nc(-c1ccc(Cl)cc1)c1c2N(C)CC1,> 100 µM,> 100,92.6,> 100 µM,73.3 µM,82.4,32.9 µM,32.7 µM,45.7 µM,,,,,,,,,,
C=CCC1=C(C)C[C@@H]2CCC(=O)C=C12,> 100 µM,> 100,> 100,> 100 µM,> 100 µM,,> 100 µM,> 100 µM,> 100 µM,,,,,,,,,,
COC(=O)c1c2c(cc3c1CC1(Cc4cc5c(c(C(C)=O)c4C1)CCC5)C3)CCC2 (stereo unspecified),,> 100,> 100,,> 100 µM,> 100,> 100 µM,> 100 µM,> 100 µM,,,,,,,,,,
C#Cc1c(C)c(/C=C/C(C)=C/C(=O)OC)n(C)c1C,> 100 µM,> 100,> 100,,> 100 µM,> 100,> 100 µM,> 100 µM,> 100 µM,,,,,,,,,,
COc1ccc(/C(Cl)=C/c2cc(OC)ccc2OC)cc1,> 100 µM,> 100,,,,> 100,> 100 µM,> 100 µM,,,,,,,,,,,
CC(C)Cc1ccc(C(C)CC2=CCC(CN(C)C)C2=O)cc1 (stereo unspecified),7.91 µM,14.7,> 22.7,26.9 µM,29.9 µM,5.61,30.9 µM,26.9 µM,10.7 µM,40.6,,,,,,,,,
COc1ccc(CCn2c(=O)c3ccccc3n(C)c2=O)cc1,,> 100,> 100,85.6 µM,> 100 µM,> 100,> 100 µM,> 100 µM,> 100 µM,,,,,,,,,,
CC(=O)O[C@]1(C)OC(=O)[C@@H](CC(C)C)N1[N+](=O)[O-],> 100 µM,> 100,> 100,> 100 µM,> 100 µM,> 100,> 100 µM,> 100 µM,> 100 µM,,,,,,,,,,
CC(C)=CCC(OC(=O)C=C(C)C)C1=CC(=O)c2c(O)ccc(O)c2C1=O (stereo unspecified),3.22 µM and 1.13 µM,5.88,2.41,12.1 µM and 5.85 µM,25.6 µM and 8.83 µM,0.674,4.46 µM and 4.93 µM,4.15 µM and 2.5 µM,23.9 µM and 6.52 µM,65.2,1.07,14.3,0.738,2.97,5.77,2.02,1.51,6.61,
CCOC(=O)N1CCc2cc(OC)c(OC)cc2/C1=C\c1ccc(OC)c(OC)c1,> 100 µM,> 100,73.9,67.6 µM,> 100 µM,> 100,59.2 µM,53.8 µM,85.6 µM,,,,,,,,,,
CC(=O)[O-].[Mn+3].[O-]c1ccccc1C=NCCNCCN=Cc1ccccc1[O-],> 100 µM,> 100,> 100,> 100 µM,,,> 100 µM,> 100 µM,> 100 µM,,> 100,,> 100,> 100,,> 100,> 100,> 100,> 100
C[Si](C)(C)/C=C\CCO,> 100 µM,> 100,> 100,> 100 µM,> 100 µM,> 100,> 100 µM,> 100 µM,> 100 µM,,,,,,,,,,
C[C@]12CC[C@H](O)CC1=CC[C@@H]1C2CC[C@]2(C)Nc3c(cnn3-c3ccccc3)CC12 (stereo partly specified),18.6 µM,67.7,83.2,48.2 µM,17.3 µM,35.7,2.99 µM,15 µM,5.13 µM,,,,,,,,,,
CC(C)(C)C(=CS(=O)/N=C/c1ccccc1)C(C)(C)C (stereo unspecified),80.7 µM,> 100,> 100,34.4 µM,> 100 µM,> 100,> 100 µM,> 100 µM,> 100 µM,,,,,,,,,,
